Measurements published in PubChem BioAssay (NCI).
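Briefly, cells in 96-well plates were exposed to five compound concentrations for 48 h, and endpoints were estimated by linear interpolation. TGI: total growth inhibition.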

Columns and labels:
Test in all cases: inhibition of tumour cell growth, NCI panel, 48 h
HCT-116 colon = test system: HCT-116 colon
HOP-62 NSCLC = test system: HOP-62 NSCLC
SF-539 CNS = test system: SF-539 CNS
PC-3 prostate = test system: PC-3 prostate
COLO 205 colon = test system: COLO 205 colon
HCT-15 colon = test system: HCT-15 colon
MDA-MB-435 = test system: MDA-MB-435
HT29 colon = test system: HT29 colon
SK-MEL-28 melanoma = test system: SK-MEL-28 melanoma
UACC-257 melanoma = test system: UACC-257 melanoma
NCI-H460 lung = test system: NCI-H460 lung
HS 578T breast = test system: HS 578T breast
HL-60(TB) leukemia = test system: HL-60(TB) leukemia

Compound	TGI (HCT-116 colon)	TGI (HOP-62 NSCLC)	TGI (SF-539 CNS)	TGI (PC-3 prostate)	TGI (COLO 205 colon)	TGI (HCT-15 colon)	TGI (MDA-MB-435)	TGI (HT29 colon)	TGI (SK-MEL-28 melanoma)	TGI (UACC-257 melanoma)	TGI (NCI-H460 lung)	TGI (HS 578T breast)	TGI (HL-60(TB) leukemia)
CCC1OC2C(CC=C(C)C)=C3OC(C)(O)C(C)(CC)C(OC(C)=O)C3=C3OC(=O)C=C1C32 (configuration not stated)	70 µM	60.1 µM	40.9 µM	> 100 µM	70.9 µM	> 100 µM	50.3 µM	53.1 µM	59.1 µM	53.7 µM	84.6 µM	> 100 µM	> 100 µM
Cc1ccc(NC(=O)c2cc(S(=O)(=O)Nc3n[nH]c(=O)[nH]3)c(SSc3cc(Cl)c(C(=O)Nc4ccc(C)cc4)cc3S(=O)(=O)Nc3n[nH]c(=O)[nH]3)cc2Cl)cc1	> 100 µM	> 100 µM		> 100 µM	> 100 µM	> 100 µM	> 100 µM	> 100 µM	> 100 µM	> 100 µM	> 100 µM	> 100 µM	> 100 µM
COC(=O)c1cc2c(c3c1CC(Cc1ccccc1)C3=O)CCC2 (configuration not stated)	> 100 µM	> 100 µM	> 100 µM	> 100 µM	> 100 µM	> 100 µM	> 100 µM	> 100 µM	> 100 µM	> 100 µM	> 100 µM	> 100 µM	> 100 µM
CCOC(=O)NNC(=O)NCc1cccc(CNC(=O)NNC(=O)OCC)c1	> 100 µM		> 100 µM	> 100 µM	> 100 µM	> 100 µM	> 100 µM	> 100 µM	> 100 µM	> 100 µM	> 100 µM	> 100 µM	> 100 µM
CCOP1(=O)CC(C)=C(Cl)C(O)C1 (configuration not stated)	> 100 µM	> 100 µM	> 100 µM	> 100 µM	> 100 µM	> 100 µM	> 100 µM	> 100 µM	> 100 µM	> 100 µM	> 100 µM	> 100 µM	> 100 µM
CSC(=S)Nc1cccc(C)n1	> 100 µM	> 100 µM	> 100 µM	> 100 µM	> 100 µM	> 100 µM	> 100 µM	> 100 µM	> 100 µM	> 100 µM	> 100 µM	> 100 µM	> 100 µM
Fc1ccc(N2C(=S)SC(=Nc3ccccc3)C2=Nc2ccccc2)cc1	> 100 µM	> 100 µM	> 100 µM	> 100 µM	> 100 µM	> 100 µM	> 100 µM	> 100 µM	> 100 µM	> 100 µM	> 100 µM	> 100 µM	> 100 µM
Oc1ccc2cc(Br)ccc2c1-c1c(O)ccc2ccc(Br)cc12	27.4 µM	28.5 µM	34.8 µM	25.3 µM	26.5 µM	29 µM	31.1 µM	10.1 µM	33.5 µM	33.9 µM	15.3 µM	24.2 µM	38.2 µM
O=C1CSC2(CC(/C=C/c3cccc([N+](=O)[O-])c3)=NN2c2cccc(S(=O)(=O)O)c2)N1c1nc2ccccc2s1 (configuration not stated)	> 100 µM		> 100 µM	51 µM	> 100 µM	44.5 µM	34.9 µM	> 100 µM	> 100 µM	> 100 µM	63.2 µM	> 100 µM	92.5 µM
CC(=O)NC1C(OCc2ccccc2)OC(CO)C(O)C1OC(C)C(=O)NC(C)C(=O)NC(CCC(=O)NCCCCNc1c2ccccc2nc2cccc([N+](=O)[O-])c12)C(N)=O (configuration not stated)	0.068 µM	0.683 µM	0.264 µM	0.663 µM	0.0506 µM	0.0495 µM	0.105 µM	0.0362 µM	0.409 µM	0.509 µM	0.0363 µM	0.562 µM	0.207 µM
O=C(c1cccs1)N(C(=S)OCCOc1ccccc1)c1ccccc1	44.6 µM	72.5 µM	58 µM	> 100 µM	42.4 µM	84.7 µM	33.7 µM	96.5 µM	55.9 µM	69.9 µM	> 100 µM	> 100 µM	48 µM
CCOC(=O)C(=CNc1ccc(NC2=NCC(C)S2)cc1)C(=O)OCC (configuration not stated)	> 100 µM	> 100 µM	> 100 µM	62.9 µM	> 100 µM	> 100 µM	60.2 µM	> 84.2 µM	> 100 µM	> 100 µM	> 100 µM	74.8 µM	16.4 µM
CC(=O)Oc1ccc(/C=C/C(=O)OCCCOC(=O)/C=C/c2ccc(OC(C)=O)c(OC(C)=O)c2)cc1OC(C)=O	> 100 µM	> 100 µM	> 100 µM	> 100 µM	> 100 µM	> 100 µM	> 100 µM	> 100 µM	> 100 µM	> 100 µM	> 100 µM	> 100 µM	18.2 µM
O=C1C(Cl)C2(CC(/C=C/c3ccccc3)=NN2c2cccc(S(=O)(=O)O)c2)N1c1nc2ccccc2s1 (configuration not stated)	56.1 µM		35.3 µM	34.4 µM	37.8 µM	38.8 µM	36.1 µM	37.2 µM	> 100 µM	54.4 µM	46.6 µM	> 100 µM	33.8 µM
CC1=NC(=Cc2ccccc2O)C(=O)N1n1c(-c2ccccc2)nc2ccccc2c1=O	> 100 µM	> 100 µM	87.3 µM	> 100 µM	> 100 µM	> 100 µM	> 100 µM	> 100 µM	> 100 µM	> 100 µM	> 100 µM	> 100 µM	> 100 µM
O=C(N/N=C/c1ccc([N+](=O)[O-])cc1)Nc1ccc(C(=O)O)cc1	> 100 µM	75 µM	> 100 µM	> 100 µM	81 µM	> 100 µM	> 100 µM	> 100 µM	> 100 µM	> 100 µM	> 100 µM	> 100 µM	> 100 µM
COC(=O)c1ccc(S)c(S(=O)(=O)Nc2n[nH]c(N)n2)c1	> 100 µM		> 100 µM	> 100 µM	> 100 µM	> 100 µM	> 100 µM	> 100 µM	> 100 µM	> 100 µM	> 100 µM	> 100 µM	> 100 µM

Compound	TGI (HCT-116 colon)	TGI (HOP-62 NSCLC)	TGI (SF-539 CNS)	TGI (PC-3 prostate)	TGI (COLO 205 colon)	TGI (HCT-15 colon)	TGI (MDA-MB-435)	TGI (HT29 colon)	TGI (SK-MEL-28 melanoma)	TGI (UACC-257 melanoma)	TGI (NCI-H460 lung)	TGI (HS 578T breast)	TGI (HL-60(TB) leukemia)
Oc1[nH]c2ccccc2c1N=NC(=S)Nc1ccccc1Cl	11.8 µM	37.9 µM	7.86 µM	> 100 µM	> 100 µM	> 100 µM	57.5 µM	21.9 µM	75.6 µM	15.5 µM	52.2 µM	56.1 µM	18.7 µM
O=[N+]([O-])/C(C(Cl)=C(Cl)Cl)=C(/Cl)SCc1ccccc1	3.88 µM	30 µM	32.3 µM	31.4 µM	4.49 µM	19.2 µM	5.12 µM	27.9 µM	20.8 µM	7.03 µM	31.2 µM	9.67 µM	0.437 µM
CC1(C)OCC([C@H]2O[C@@H](CC(=S)NCCCCCCCCCCCCNC(=S)C[C@H]3O[C@@H](C4COC(C)(C)O4)[C@H]4OC(C)(C)O[C@H]43)[C@H]3OC(C)(C)O[C@H]32)O1 (some centres not stated)	> 100 µM	> 100 µM	> 100 µM	> 100 µM		> 100 µM	> 100 µM	> 100 µM	> 100 µM	> 100 µM	> 100 µM	> 100 µM	> 100 µM
Nc1ccc2c(c1)nc1n2C(c2c(F)cccc2F)SC1 (configuration not stated)	> 100 µM	> 100 µM	> 100 µM	> 100 µM	> 100 µM	> 100 µM	> 100 µM	> 100 µM	> 100 µM	> 100 µM	> 100 µM	> 100 µM	> 100 µM
O=C(NC1CCN(Cc2ccccc2)CC1)c1ccc(I)cc1	> 100 µM	> 100 µM	> 100 µM	> 100 µM	> 100 µM	> 100 µM	> 100 µM	> 100 µM	> 100 µM	> 100 µM	> 100 µM	> 100 µM	> 100 µM
O=[N+]([O-])c1ccc(C(=S)Nc2ccccc2)o1	4.67 µM	9.08 µM	4.58 µM	4.63 µM	2.79 µM	7.07 µM	7.63 µM	5.86 µM	19.3 µM	8.82 µM	12.1 µM	32.7 µM	6.35 µM
COc1ccc(/C(Br)=C2\OC(=O)c3ccccc32)cc1	> 10 µM	> 10 µM	> 10 µM	> 10 µM	> 10 µM	> 10 µM	> 10 µM	> 10 µM	> 10 µM	> 10 µM	> 10 µM	> 10 µM	> 10 µM
N#Cc1c2c(c(N)oc1=O)C(c1ccccc1)CC(=O)N2 (configuration not stated)	> 100 µM	> 100 µM	> 100 µM	> 100 µM	> 100 µM	> 100 µM	> 100 µM	> 100 µM	> 100 µM	> 100 µM	> 100 µM	> 100 µM	> 100 µM
Cc1cn(CCCCC2=NCCCN2)c(=O)[nH]c1=O	> 29.3 µM	> 60.7 µM	> 22 µM	> 35 µM	> 43.4 µM	> 47.2 µM	> 33.8 µM	> 23.1 µM	> 32.9 µM	> 33.9 µM	> 67.8 µM	> 60.5 µM	> 19.7 µM
[N-]=[N+]=NI1OC(=O)c2ccccc21	> 100 µM	> 100 µM	> 100 µM	> 100 µM	> 100 µM	> 100 µM	> 100 µM	> 100 µM	> 100 µM	> 100 µM		> 100 µM	84 µM
CC1(c2nc3ccccc3[nH]2)CCC(C(=O)O)C(C)(C)O1 (configuration not stated)	> 100 µM	> 100 µM	> 100 µM	> 100 µM	> 100 µM	> 100 µM	> 100 µM	> 100 µM	> 100 µM	> 100 µM		> 100 µM	> 100 µM
COc1ccc(OC)c(CNc2ccc(C(=O)O)cc2)c1	> 100 µM		> 100 µM	> 100 µM	> 100 µM	> 100 µM	> 100 µM	> 100 µM	> 100 µM	> 100 µM		> 100 µM	> 100 µM
CC1=NN(c2nc(N)nc(/C(C#N)=C\c3csc([N+](=O)[O-])c3)n2)C(C)(C)C1	> 100 µM	64.6 µM	> 100 µM	41.5 µM		> 100 µM	> 100 µM	> 100 µM	> 100 µM	> 100 µM	> 100 µM	54.9 µM	> 100 µM
CCOC(=O)c1nc2cc(C(F)(F)F)ccc2nc1Nc1ccc(OC)cc1	> 100 µM	> 100 µM	> 100 µM	> 100 µM	> 100 µM	> 100 µM	> 100 µM	> 100 µM	> 100 µM	> 100 µM		> 100 µM	> 100 µM
COC(=O)c1ccc2c(c1)S/C(=C/c1ccc3ccc4cccc5ccc1c3c45)S2	> 100 µM	> 100 µM	> 100 µM	> 100 µM	> 100 µM	> 100 µM	74.3 µM	> 100 µM		> 100 µM	> 100 µM	> 100 µM	46.9 µM
COc1ccc(OC)c(N(CN2C(=O)CCC2C(=O)O)C(C)=O)c1 (configuration not stated)	> 100 µM	> 100 µM	> 100 µM	> 100 µM	> 100 µM	> 100 µM	> 100 µM	> 100 µM	> 100 µM	> 100 µM		> 100 µM	> 100 µM
CCOC(=O)c1sc2nc(SC)nc3c2c1NCN3c1ccc2c(c1)OCO2	> 100 µM	18.7 µM	51.1 µM	37.2 µM	> 100 µM	> 100 µM	52.7 µM	> 100 µM	> 100 µM	> 100 µM		8.07 µM	> 100 µM
